SMILES: O=C(O)C=CC(=O)O.OCCOCCN1CCN(C2=Nc3ccccc3Sc3ccccc32)CC1.OCCOCCN1CCN(C2=Nc3ccccc3Sc3ccccc32)CC1
- solubility (mole fraction) (in DMF, 283.15 K): 0.00309
- solubility (mole fraction) (in DMF, 288.15 K): 0.00369
- solubility (mole fraction) (in DMF, 293.15 K): 0.00419
- solubility (mole fraction) (in DMF, 298.15 K): 0.00491
- solubility (mole fraction) (in DMF, 303.15 K): 0.00598
- solubility (mole fraction) (in DMF, 308.15 K): 0.00684
- solubility (mole fraction) (in DMF, 313.15 K): 0.0084
- solubility (mole fraction) (in DMF, 318.15 K): 0.0102
- solubility (mole fraction) (in DMF, 323.15 K): 0.0123
- solubility (mole fraction) (in acetone, 283.15 K): 0.000106
- solubility (mole fraction) (in acetone, 288.15 K): 0.000146
- solubility (mole fraction) (in acetone, 293.15 K): 0.000178
- solubility (mole fraction) (in acetone, 298.15 K): 0.000217
- solubility (mole fraction) (in acetone, 303.15 K): 0.000251
- solubility (mole fraction) (in acetone, 308.15 K): 0.000294
- solubility (mole fraction) (in acetone, 313.15 K): 0.000345
- solubility (mole fraction) (in acetone, 318.15 K): 0.000395
- solubility (mole fraction) (in acetone, 323.15 K): 0.000475
- solubility (mole fraction) (in ethanol, 283.15 K): 0.000191
- solubility (mole fraction) (in ethanol, 288.15 K): 0.000244
- solubility (mole fraction) (in ethanol, 293.15 K): 0.000325
- solubility (mole fraction) (in ethanol, 298.15 K): 0.000408
- solubility (mole fraction) (in ethanol, 303.15 K): 0.000502
- solubility (mole fraction) (in ethanol, 308.15 K): 0.000636
- solubility (mole fraction) (in ethanol, 313.15 K): 0.000838
- solubility (mole fraction) (in ethanol, 318.15 K): 0.0011
- solubility (mole fraction) (in ethanol, 323.15 K): 0.00135
- solubility (mole fraction) (in ethyl acetate, 283.15 K): 8.13e-05
- solubility (mole fraction) (in ethyl acetate, 288.15 K): 9.87e-05
- solubility (mole fraction) (in ethyl acetate, 293.15 K): 0.000142
- solubility (mole fraction) (in ethyl acetate, 298.15 K): 0.000176
- solubility (mole fraction) (in ethyl acetate, 303.15 K): 0.000218
- solubility (mole fraction) (in ethyl acetate, 308.15 K): 0.000255
- solubility (mole fraction) (in ethyl acetate, 313.15 K): 0.000306
- solubility (mole fraction) (in ethyl acetate, 318.15 K): 0.000365
- solubility (mole fraction) (in ethyl acetate, 323.15 K): 0.000411
- solubility (mole fraction) (in isobutanol, 283.15 K): 6.85e-05
- solubility (mole fraction) (in isobutanol, 288.15 K): 8.53e-05
- solubility (mole fraction) (in isobutanol, 293.15 K): 0.000119
- solubility (mole fraction) (in isobutanol, 298.15 K): 0.000162
- solubility (mole fraction) (in isobutanol, 303.15 K): 0.000204
- solubility (mole fraction) (in isobutanol, 308.15 K): 0.000251
- solubility (mole fraction) (in isobutanol, 313.15 K): 0.000307
- solubility (mole fraction) (in isobutanol, 318.15 K): 0.000395
- solubility (mole fraction) (in isobutanol, 323.15 K): 0.000481
- solubility (mole fraction) (in isopropanol, 283.15 K): 0.000107
- solubility (mole fraction) (in isopropanol, 288.15 K): 0.000126
- solubility (mole fraction) (in isopropanol, 293.15 K): 0.000168
- solubility (mole fraction) (in isopropanol, 298.15 K): 0.000203
- solubility (mole fraction) (in isopropanol, 303.15 K): 0.000251
- solubility (mole fraction) (in isopropanol, 308.15 K): 0.000289
- solubility (mole fraction) (in isopropanol, 313.15 K): 0.00036
- solubility (mole fraction) (in isopropanol, 318.15 K): 0.000494
- solubility (mole fraction) (in isopropanol, 323.15 K): 0.000716
- solubility (mole fraction) (in methanol, 283.15 K): 0.000388
- solubility (mole fraction) (in methanol, 288.15 K): 0.000453
- solubility (mole fraction) (in methanol, 293.15 K): 0.000545
- solubility (mole fraction) (in methanol, 298.15 K): 0.000696
- solubility (mole fraction) (in methanol, 303.15 K): 0.000879
- solubility (mole fraction) (in methanol, 308.15 K): 0.00121
- solubility (mole fraction) (in methanol, 313.15 K): 0.00163
- solubility (mole fraction) (in methanol, 318.15 K): 0.00202
- solubility (mole fraction) (in methanol, 323.15 K): 0.00245
- solubility (mole fraction) (in n-butanol, 283.15 K): 0.000154
- solubility (mole fraction) (in n-butanol, 288.15 K): 0.000216
- solubility (mole fraction) (in n-butanol, 293.15 K): 0.000292
- solubility (mole fraction) (in n-butanol, 298.15 K): 0.000393
- solubility (mole fraction) (in n-butanol, 303.15 K): 0.000502
- solubility (mole fraction) (in n-butanol, 308.15 K): 0.000619
- solubility (mole fraction) (in n-butanol, 313.15 K): 0.000792
- solubility (mole fraction) (in n-butanol, 318.15 K): 0.000988
- solubility (mole fraction) (in n-butanol, 323.15 K): 0.00118
- solubility (mole fraction) (in water, 283.15 K): 4.98e-05
- solubility (mole fraction) (in water, 288.15 K): 5.57e-05
- solubility (mole fraction) (in water, 293.15 K): 6.73e-05
- solubility (mole fraction) (in water, 298.15 K): 7.39e-05
- solubility (mole fraction) (in water, 303.15 K): 7.99e-05
- solubility (mole fraction) (in water, 308.15 K): 9.31e-05
- solubility (mole fraction) (in water, 313.15 K): 0.000108
- solubility (mole fraction) (in water, 318.15 K): 0.000131
- solubility (mole fraction) (in water, 323.15 K): 0.000162
